“And” between values parts separate entries of the source, which are not always exact repeats. Equal values may be shown once.
Assays:
[1] = system: onychomycosis of the toenail; assay: Phase II clinical study: changes over time in efficacy of the target nail (turbidity area ratio, clinical cure, relapse/reinfection); assay type: in vivo, human; conditions: for Clinical cure (no visual sign of infection) / Clinical cure rate and 95% CI / Remaining of the visual sign of infection: target nail; for Clinical cure (no visual sign of infection) / Clinical cure rate and 95% CI / Remaining of the visual sign of infection / turbidity area ratio regarding the target nail, Mean / turbidity area ratio regarding the target nail, Median: PPS
Description: (§1) A Phase II clinical pharmacology study was conducted in subjects with onychomycosis of the toenail. The study investigated the pharmacokinetics, efficacy and safety of three different dosing regimens of fosravuconazole. […] The three treatment groups were as follows: • a.
(§2) The efficacy endpoints were: (1) overall clinical efficacy; (2) changes over time in efficacy; (3) confirmation of elements of dermatophytes by direct microscopy; and (4) results of identification of dermatophytes by the polymerase chain reaction (PCR) method.

fungal elements = assay: Mycological cure: search for fungal elements by direct microscopy; assay type: in vivo, human; conditions: PPS
Description: as §1, §2
At screening, fungal elements were found by direct microscopy in all treatment groups.

Trichophyton species = assay: Overall clinical evaluation by identified species; assay type: in vivo; conditions: 200 mg, Week 48
Description: as §1

Trichophyton rubrum [2] = assay: Overall clinical evaluation by identified species; assay type: in vivo; conditions: Week 48
Description: as §1

Trichophyton rubrum [3] = assay: Identification of dermatophytes by PCR method: disappearance rate; assay type: in vivo; conditions: Week 48
Description: as §2

## C[C@@H](c1nc(-c2ccc(C#N)cc2)cs1)[C@@](Cn1cncn1)(OCOP(=O)(O)O)c1ccc(F)cc1F [fosravuconazole, 4-[2-[(1R,2R)-2-(2,4-difluorophenyl)-1-methyl-2-[(phosphonooxy)methoxy]-3-(1H-1,2,4-triazol-1-yl)propyl]-4-thiazolyl]benzo-nitrile]
[1]; 100 mg (once daily dose) group
  relapse/reinfection: no subject
[1]; 100 mg group, Week 48
  Clinical cure (no visual sign of infection): 11
  Clinical cure rate and 95% CI: 44.0 (24.5, 65.0) %
  Remaining of the visual sign of infection: 14
[1]; 100 mg, Start day of treatment
  turbidity area ratio regarding the target nail, Mean: 76.9%
  turbidity area ratio regarding the target nail, Median: 75.5%
[1]; 100 mg, Week 4
  turbidity area ratio regarding the target nail, Mean: 72.9%
  turbidity area ratio regarding the target nail, Median: 72.0%
[1]; 100 mg, Week 8
  turbidity area ratio regarding the target nail, Mean: 65.9%
  turbidity area ratio regarding the target nail, Median: 67.0%
[1]; 100 mg, Week 12
  turbidity area ratio regarding the target nail, Mean: 55.6%
  turbidity area ratio regarding the target nail, Median: 56.0%
[1]; 100 mg, Week 16
  turbidity area ratio regarding the target nail, Mean: 44.2%
  turbidity area ratio regarding the target nail, Median: 46.0%
[1]; 100 mg, Week 20
  turbidity area ratio regarding the target nail, Mean: 34.6%
  turbidity area ratio regarding the target nail, Median: 36.0%
[1]; 100 mg, Week 24
  turbidity area ratio regarding the target nail, Mean: 26.5%
  turbidity area ratio regarding the target nail, Median: 25.0%
[1]; 100 mg, Week 28
  turbidity area ratio regarding the target nail, Mean: 19.4%
  turbidity area ratio regarding the target nail, Median: 18.0%
[1]; 100 mg, Week 32
  turbidity area ratio regarding the target nail, Mean: 14.4%
  turbidity area ratio regarding the target nail, Median: 15.0%
[1]; 100 mg, Week 36
  turbidity area ratio regarding the target nail, Mean: 12.0%
  turbidity area ratio regarding the target nail, Median: 9.0%
[1]; 100 mg, Week 40
  turbidity area ratio regarding the target nail, Mean: 9.6%
  turbidity area ratio regarding the target nail, Median: 12.0%
[1]; 100 mg, Week 44
  turbidity area ratio regarding the target nail, Mean: 8.6%
  turbidity area ratio regarding the target nail, Median: 8.0%
[1]; 100 mg, Week 48
  turbidity area ratio regarding the target nail, Mean: 9.3%
  turbidity area ratio regarding the target nail, Median: 6.0%
[1]; 200 mg (pulse treatment) group
  relapse/reinfection: 4 subjects
[1]; 200 mg group, Week 48
  Clinical cure (no visual sign of infection): 7
  Clinical cure rate and 95% CI: 31.8 (13.9, 54.8) %
  Remaining of the visual sign of infection: 15
[1]; 200 mg, Start day of treatment
  turbidity area ratio regarding the target nail, Mean: 76.4%
  turbidity area ratio regarding the target nail, Median: 74.0%
[1]; 200 mg, Week 4
  turbidity area ratio regarding the target nail, Mean: 69.6%
  turbidity area ratio regarding the target nail, Median: 70.0%
[1]; 200 mg, Week 8
  turbidity area ratio regarding the target nail, Mean: 59.8%
  turbidity area ratio regarding the target nail, Median: 58.5%
[1]; 200 mg, Week 12
  turbidity area ratio regarding the target nail, Mean: 51.4%
  turbidity area ratio regarding the target nail, Median: 49.0%
[1]; 200 mg, Week 16
  turbidity area ratio regarding the target nail, Mean: 45.0%
  turbidity area ratio regarding the target nail, Median: 45.0%
[1]; 200 mg, Week 20
  turbidity area ratio regarding the target nail, Mean: 35.8%
  turbidity area ratio regarding the target nail, Median: 34.0%
[1]; 200 mg, Week 24
  turbidity area ratio regarding the target nail, Mean: 27.9%
  turbidity area ratio regarding the target nail, Median: 25.0%
[1]; 200 mg, Week 28
  turbidity area ratio regarding the target nail, Mean: 23.3%
  turbidity area ratio regarding the target nail, Median: 18.0%
[1]; 200 mg, Week 32
  turbidity area ratio regarding the target nail, Mean: 20.0%
  turbidity area ratio regarding the target nail, Median: 9.0%
[1]; 200 mg, Week 36
  turbidity area ratio regarding the target nail, Mean: 18.2%
  turbidity area ratio regarding the target nail, Median: 11.5%
[1]; 200 mg, Week 40
  turbidity area ratio regarding the target nail, Mean: 16.0%
  turbidity area ratio regarding the target nail, Median: 10.0%
[1]; 200 mg, Week 44
  turbidity area ratio regarding the target nail, Mean: 13.5%
  turbidity area ratio regarding the target nail, Median: 5.0%
[1]; 200 mg, Week 48
  turbidity area ratio regarding the target nail, Mean: 14.6%
  turbidity area ratio regarding the target nail, Median: 9.0%
[1]; 300 mg group, Week 48
  Clinical cure (no visual sign of infection): 11
  Clinical cure rate and 95% CI: 40.7 (22.4, 61.2) %
  Remaining of the visual sign of infection: 16
[1]; 400 mg group
  relapse/reinfection: 1 subject
[1]; 400 mg, Start day of treatment
  turbidity area ratio regarding the target nail, Mean: 74.4%
  turbidity area ratio regarding the target nail, Median: 76.0%
[1]; 400 mg, Week 4
  turbidity area ratio regarding the target nail, Mean: 66.9%
  turbidity area ratio regarding the target nail, Median: 67.0%
[1]; 400 mg, Week 8
  turbidity area ratio regarding the target nail, Mean: 57.4%
  turbidity area ratio regarding the target nail, Median: 59.0%
[1]; 400 mg, Week 12
  turbidity area ratio regarding the target nail, Mean: 49.3%
  turbidity area ratio regarding the target nail, Median: 52.0%
[1]; 400 mg, Week 16
  turbidity area ratio regarding the target nail, Mean: 40.6%
  turbidity area ratio regarding the target nail, Median: 41.0%
[1]; 400 mg, Week 20
  turbidity area ratio regarding the target nail, Mean: 31.1%
  turbidity area ratio regarding the target nail, Median: 29.0%
[1]; 400 mg, Week 24
  turbidity area ratio regarding the target nail, Mean: 25.7%
  turbidity area ratio regarding the target nail, Median: 20.0%
[1]; 400 mg, Week 28
  turbidity area ratio regarding the target nail, Mean: 18.3%
  turbidity area ratio regarding the target nail, Median: 16.0%
[1]; 400 mg, Week 32
  turbidity area ratio regarding the target nail, Mean: 14.9%
  turbidity area ratio regarding the target nail, Median: 12.0%
[1]; 400 mg, Week 36
  turbidity area ratio regarding the target nail, Mean: 13.5%
  turbidity area ratio regarding the target nail, Median: 9.0%
[1]; 400 mg, Week 40
  turbidity area ratio regarding the target nail, Mean: 11.8%
  turbidity area ratio regarding the target nail, Median: 6.0%
[1]; 400 mg, Week 44
  turbidity area ratio regarding the target nail, Mean: 11.9%
  turbidity area ratio regarding the target nail, Median: 6.0%
[1]; 400 mg, Week 48
  turbidity area ratio regarding the target nail, Mean: 12.7%
  turbidity area ratio regarding the target nail, Median: 8.0%
Fungal elements; 100 mg group, At screening
  Absence of fungal elements by direct microscopy (%): (0.0) %
  Absence of fungal elements by direct microscopy, subjects: 0
  Presence of fungal elements by direct microscopy (%): (100.0) %
  Presence of fungal elements by direct microscopy, subjects: 28
Fungal elements; 100 mg group, Week 12
  Absence of fungal elements by direct microscopy (%): (33.3) %
  Absence of fungal elements by direct microscopy, subjects: 9
  Presence of fungal elements by direct microscopy (%): (16.7) %
  Presence of fungal elements by direct microscopy, subjects: 18
Fungal elements; 100 mg group, Week 24
  Absence of fungal elements by direct microscopy (%): (48.0) %
  Absence of fungal elements by direct microscopy, subjects: 12
  Presence of fungal elements by direct microscopy (%): (52.0) %
  Presence of fungal elements by direct microscopy, subjects: 13
Fungal elements; 100 mg group, Week 48
  Absence of fungal elements by direct microscopy, subjects: 18
  Presence of fungal elements by direct microscopy (%): (28.0) %
  Presence of fungal elements by direct microscopy, subjects: 7
Fungal elements; 200 mg group, At screening
  Absence of fungal elements by direct microscopy (%): (0.0) %
  Absence of fungal elements by direct microscopy, subjects: 0
  Presence of fungal elements by direct microscopy (%): (100.0) %
  Presence of fungal elements by direct microscopy, subjects: 27
Fungal elements; 200 mg group, Week 12
  Absence of fungal elements by direct microscopy (%): (50.0) %
  Absence of fungal elements by direct microscopy, subjects: 13
  Presence of fungal elements by direct microscopy (%): (50.0) %
  Presence of fungal elements by direct microscopy, subjects: 13
Fungal elements; 200 mg group, Week 24
  Absence of fungal elements by direct microscopy (%): (48.0) %
  Absence of fungal elements by direct microscopy, subjects: 12
  Presence of fungal elements by direct microscopy (%): (52.0) %
  Presence of fungal elements by direct microscopy, subjects: 13
Fungal elements; 200 mg group, Week 48
  Absence of fungal elements by direct microscopy, subjects: 8
  Presence of fungal elements by direct microscopy (%): (63.6) %
  Presence of fungal elements by direct microscopy, subjects: 14
Fungal elements; 400 mg group, At screening
  Absence of fungal elements by direct microscopy (%): (0.0) %
  Absence of fungal elements by direct microscopy, subjects: 0
  Presence of fungal elements by direct microscopy (%): (100.0) %
  Presence of fungal elements by direct microscopy, subjects: 33
Fungal elements; 400 mg group, Week 12
  Absence of fungal elements by direct microscopy (%): (19.4) %
  Absence of fungal elements by direct microscopy, subjects: 6
  Presence of fungal elements by direct microscopy (%): (80.6) %
  Presence of fungal elements by direct microscopy, subjects: 25
Fungal elements; 400 mg group, Week 24
  Absence of fungal elements by direct microscopy (%): (45.2) %
  Absence of fungal elements by direct microscopy, subjects: 14
  Presence of fungal elements by direct microscopy (%): (54.8) %
  Presence of fungal elements by direct microscopy, subjects: 17
Fungal elements; 400 mg group, Week 48
  Absence of fungal elements by direct microscopy, subjects: 17
  Presence of fungal elements by direct microscopy (%): (37.0) %
  Presence of fungal elements by direct microscopy, subjects: 10
Trichophyton species
  Cure rate and 95% CI: 0.0 %
  Cured: 0
  Failed: 0
  Improved: 0
  Markedly improved: 1
  Slightly improved: 0
Trichophyton rubrum [2]; 100 mg
  Cure rate and 95% CI: 47.6 %
  Cured: 10
  Failed: 0
  Improved: 1
  Markedly improved: 10
  Slightly improved: 0
Trichophyton rubrum [2]; 200 mg
  Cure rate and 95% CI: 31.6 %
  Cured: 6
  Failed: 0
  Improved: 2
  Markedly improved: 11
  Slightly improved: 0
Trichophyton rubrum [2]; 400 mg
  Cure rate and 95% CI: 44.0 %
  Cured: 11
  Failed: 0
  Improved: 4
  Markedly improved: 10
  Slightly improved: 0
Trichophyton rubrum [3]; 100 mg (once daily dose) group
  Disappearance rate of Trichophyton rubrum: 57.1%
Trichophyton rubrum [3]; 200 mg (pulse treatment) group
  Disappearance rate of Trichophyton rubrum: 36.8%
Trichophyton rubrum [3]; 400 mg (pulse treatment) group
  Disappearance rate of Trichophyton rubrum: 52.1% and 52.0%
